Data from US20110105544A1, “CARBOXYLIC DERIVATIVES FOR USE IN THE TREATMENT OF CANCER” (priority 2007, published 2011).
Structures can show the parent of a compound that is named as a salt.

Legend:
human recombinant HDAC 2 = molecular target: T1, human recombinant HDAC 2 (Homo sapiens, UniProt Q92769); assay: HDAC inhibition assay (Fluor de Lys), HDAC2; assay type: biochemical; conditions: inhibitor-protein incubation 2 hours, reaction 1 h 30 min, 37° C.
T1 construct: purchased BPS Bioscience 50002
Procedure: All assays were carried out in the assay buffer: 50 mM Tris/Cl, pH 8.0, 137 mM NaCl, 2.7 mM KCl, 1 mM MgCl2).
Reactions were carried out in a 96-wells microplate (Corning 96 well Flat Bottom Non-binding surface (black) ref. 3651).
Potential inhibitors were added after five fold serial dilutions in DMSO. Final DMSO concentration in the assay microplate was kept at 2%.
Afterwards, human recombinant HDAC1, HDAC 2 or HDAC 8 were added up to […] respectively in assay buffer. When necessary, the mixture was incubated at room temperature prior the addition of substrate.
Total reaction volume of 50 μl. Human recombinant HDACs could be acquired from commercial sources (HDAC1: ref. #50001, BPS Bioscience™; HDAC 2: ref. #50002, BPS Bioscience™; HDAC 8: ref. #50008, BPS Bioscience™).
Reactions were stopped with 50 μl Developer (KI-105 Fluor de Lys™, BIOMOL®) with 2 μmol/L trichostatin A (TSA, final concentration 1 μmol/L). After 20 minutes at 37° C., fluorescence (excitation 360 nm, emission 460 nm) was measured using an Infinite F200 fluorimeter (Tecan). Background was determined in reactions using substrate in the absence of enzyme.
IC50 values are defined as the compound concentration at which the deacetylase activity is 50% inhibited. In these assays the following grading was used (I: IC50≦10 μM; II: 10 μM<IC50≦100 μM; III: 100 μM<IC50≦1 mM) The results obtained are summarized in Table 4.

[1] = system: human colon cancer cell line HCT116; assay: alamarBlue viability assay, HCT116; assay type: cell-based; conditions: HCT-116, 72 hours, dose required to inhibit cell growth by 50%
Procedure: The human colon cancer cell line HCT116 and the human breast cancer cell line MCF-7 were from the American Type Culture Collection (ATCC; CCL-247 and HTB-22, respectively).
The HCT116 cell line was maintained in DMEM GlutaMAX (Invitrogen) supplemented with 10% fetal calf serum and the MCF7 cell line was maintained in RPMI1640 GlutaMAX (Invitrogen) containing 1 mM sodium piruvate and 10% fetal calf serum.
Cells were grown in a humidified incubator at 37° C. in 5% CO2.
Cells were plated in 96-well plates at a density of 6000 cells/well in 100 μl medium 24 h before addition of drugs. […] To do so, a drugs-dilution plate at twice the screening concentrations was prepared. 72 hours later, alamarBlue (Biosource, Invitrogen) viability assay was performed following manufacturer's protocol. In brief, alamarBlue diluted in media was added to cells to have a 5% solution. Cells were incubated at 37° C., 3 hours and at room temperature, 30 min. Cells with no drug and, cells with no drug and lysed with triton X-100 were used as controls. Fluorescence was monitored at 530 nm excitation and 590 nm emission wavelengths. Results were quantified using Infinite F200 Microplate Reader (Tecan Group, Ltd.). EC50 were calculated as the dose of drugs required to inhibit cell growth by 50%, with Origin 7.0 computer program.

T1 sequence (Q92769 whole entry): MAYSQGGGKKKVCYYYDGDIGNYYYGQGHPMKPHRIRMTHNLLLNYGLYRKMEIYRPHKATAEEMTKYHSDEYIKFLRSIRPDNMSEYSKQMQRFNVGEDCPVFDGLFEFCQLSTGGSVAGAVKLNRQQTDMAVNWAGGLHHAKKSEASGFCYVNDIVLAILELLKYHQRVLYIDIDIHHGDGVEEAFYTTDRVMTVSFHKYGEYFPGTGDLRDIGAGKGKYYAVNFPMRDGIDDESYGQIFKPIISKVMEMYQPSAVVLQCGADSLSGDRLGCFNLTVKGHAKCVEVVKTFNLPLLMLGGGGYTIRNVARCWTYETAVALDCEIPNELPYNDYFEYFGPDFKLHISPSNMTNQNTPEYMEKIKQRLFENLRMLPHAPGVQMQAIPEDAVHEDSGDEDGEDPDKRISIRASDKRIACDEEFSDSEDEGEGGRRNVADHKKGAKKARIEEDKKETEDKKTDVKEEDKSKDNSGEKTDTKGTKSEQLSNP

SMILES | IC50 (human recombinant HDAC 2) [µM] | EC50 [1] [µM]
O=C(O)C(CCCc1ccccc1)CCC1CNc2ccccc21 (mixture of isomers) [Example 53, 2-[2-(2,3-Dihydro-1H-indol-3-yl)ethyl]-5-phenylpentanoic acid] | 10 to 100 | –
O=C(O)C(CCCCc1ccccc1)CCc1ccccc1 (stereo not drawn) [Example 14, 6-Phenyl-2-(2-phenylethyl)hexanoic acid] | 10 to 100 | 256
CC(=O)OCOC(=O)C(CCc1ccccc1)Cc1ccccc1 (stereo not drawn) [Example 15, (Acetyloxy)methyl 2-benzyl-4-phenylbutanoate] | – | 85
CC(=O)OCOC(=O)C(CCCc1ccccc1)CCc1ccccc1 (stereo not drawn) [Example 16, (Acetyloxy)methyl 5-phenyl-2-(2-phenylethyl)pentanoate] | – | 267
COc1ccc(NS(=O)(=O)c2cccc(CCCC(CCc3ccccc3)C(=O)OCOC(C)=O)c2)cc1OC (stereo not drawn) [Example 17, (Acetyloxy)methyl 5-(3-{[(3,4-dimethoxyphenyl)amino]sulfonyl}phenyl)-2-(2-phenylethyl)pentanoate] | – | 62
CC(=O)OCOC(=O)C(CCCc1cccc(S(=O)(=O)Nc2ccc(C)cc2)c1)CCc1ccccc1 (stereo not drawn) [Example 18] | – | 95
Cc1ccc(S(=O)(=O)Nc2cccc(CCCC(CCc3ccccc3)C(=O)O)c2)cc1 (stereo not drawn) [Example 25, 5-(3′-{[(4-Methylphenyl)sulfonyl]amino}phenyl)-2-(2-phenylethyl)pentanoic acid] | 10 to 100 | 121
Nc1ccc(CCC(CCCc2ccccc2)C(=O)O)cc1 (stereo not drawn) [Example 32, 2-[2-(4-Aminophenyl)ethyl]-5-phenylpentanoic acid] | 100 to 1000 | –
O=C(O)C(CCCc1ccccc1)CCc1ccc(NCc2ccccc2)cc1 (stereo not drawn) [Example 33, 2-[2-(4-(Benzylamino)phenyl)ethyl]-5-phenylpentanoic acid] | 10 to 100 | 71.4
CNS(=O)(=O)c1cccc(CCCC(CCc2ccccc2)C(=O)OC)c1 (stereo not drawn) [Example 42, Methyl 5-(3-[(methylamino)sulfonyl]phenyl)-2-(2-phenylethyl)pentanoate] | – | 56
Cc1ccc(NS(=O)(=O)c2cccc(CCCC(CCCc3ccccc3)C(=O)O)c2)cc1 (stereo not drawn) [Example 44, 5-[3-(4-methylanilinosulfonyl)phenyl]-2-(3-phenylpropyl)pentanoic acid] | 10 to 100 | 95
CCc1ccc(CCC(CCCc2ccc(S(=O)(=O)Nc3ccccc3)cc2)C(=O)OC)cc1 (stereo not drawn) [Example 47, Methyl 5-[4-(anilinosulfonyl)phenyl]-2-[2-(4-ethylphenyl)ethyl]pentanoate] | – | 23
CCc1ccc(CCC(CCCCc2ccccc2)C(=O)O)cc1 (stereo not drawn) [Example 48, 2-[2-(4-Ethylphenyl)ethyl]-6-phenylhexanoic acid] | 10 to 100 | 112
CCc1ccc(CCC(CCCc2cccc3ccccc23)C(=O)O)cc1 (stereo not drawn) [Example 50, 5-(1-Naphthyl)-2-[2-(4-ethylphenyl)ethyl]-pentanoic acid] | 100 to 1000 | 103
O=C(O)C(CCCc1ccccc1)CCc1ccc(Br)cc1 (stereo not drawn) [Example 52, 2-[2-(4-Bromophenyl)ethyl]-5-phenylpentanoic acid] | 100 to 1000 | 107
O=C(O)C(CCCc1ccccc1)CCc1ccc(O)cc1 (stereo not drawn) [Example 54, 2-[2-(4-hydroxyphenyl)ethyl]-5-phenylpentanoic acid] | 100 to 1000 | –
CC(=O)OCOC(=O)C(CCCc1ccccc1)CCc1ccc(OCc2ccccc2)cc1 (stereo not drawn) [Example 56, (Acetyloxy)methyl 2-[2-(4-benzyloxyphenyl)ethyl]-5-phenyl pentanoate] | – | 56
O=C(O)C(CCCc1ccccc1)CCc1ccc(OCc2ccccn2)cc1 (stereo not drawn) [Example 58, 2-{2-[4-(Pyridin-2-ylmethoxy)phenyl]ethyl}-5-phenylpentanoic acid] | 10 to 100 | 160
O=C(O)C(CCCc1ccccc1)CCc1ccc(OCc2cccnc2)cc1 (stereo not drawn) [Example 59, 2-{2-[4-(Pyridin-3-ylmethoxy)phenyl]ethyl}-5-phenyl pentanoic acid] | 10 to 100 | –

SMILES | IC50 (human recombinant HDAC 2) [µM] | EC50 [1] [µM]
O=C(O)C(CCCc1ccccc1)CCc1ccc(OCc2ccncc2)cc1 (stereo not drawn) [Example 60, 2-{2-[4-(Pyridin-4-ylmethoxy)phenyl]ethyl}-5-phenylpentanoic acid] | 100 to 1000 | –
N#Cc1ccccc1Oc1ccc(CCC(CCCc2ccccc2)C(=O)O)cc1 (stereo not drawn) [Example 61, 2-{2-[4-(2-Cyanophenoxy)phenyl]ethyl}-5-phenylpentanoic acid] | 10 to 100 | 70.7
N#Cc1cccc(Oc2ccc(CCC(CCCc3ccccc3)C(=O)O)cc2)c1 (stereo not drawn) [Example 62, 2-{2-[4-(3-cyanophenoxy)phenyl]ethyl}-5-phenylpentanoic acid] | 10 to 100 | 155
N#Cc1ccc(Oc2ccc(CCC(CCCc3ccccc3)C(=O)O)cc2)cc1 (stereo not drawn) [Example 63, 2-{2-[4-(4-cyanophenoxy)phenyl]ethyl}-5-phenylpentanoic acid] | 10 to 100 | 88
O=C(O)C(CCCc1ccccc1)CCc1ccc(Oc2ccc(F)cc2)cc1 (stereo not drawn) [Example 64, 2-{2-[4-(4-Fluorophenoxy)phenyl]ethyl}-5-phenylpentanoic acid] | 100 to 1000 | –
O=C(O)C(CCCc1ccccc1)CCc1ccc(Oc2ccccc2)cc1 (stereo not drawn) [Example 65, 2-{2-[4-Phenoxyphenyl]ethyl}-5-phenylpentanoic acid] | 100 to 1000 | –
O=C(O)C(CCCc1ccccc1)CCc1ccc(Oc2ccc(C(F)(F)F)cc2)cc1 (stereo not drawn) [Example 66, 2-{2-[4-(4-Trifluoromethylphenoxy)phenyl]ethyl}-5-phenyl pentanoic acid] | 100 to 1000 | –
COc1ccc(Oc2ccc(CCC(CCCc3ccccc3)C(=O)O)cc2)cc1 (stereo not drawn) [Example 67, 2-{2-[4-(4-Methoxyphenoxy)phenyl]ethyl}-5-phenylpentanoic acid] | 10 to 100 | –
O=C(O)C(CCc1ccccc1)SCCc1ccccc1 (stereo not drawn) [Example 68, 4-Phenyl-2-[(2-phenylethyl)thio]butanoic acid] | 100 to 1000 | –
O=C(O)C(CCCc1ccccc1)SCc1ccccc1 (stereo not drawn) [Example 70, Sodium 2-(benzylthio)-5-phenylpentanoate] | 100 to 1000 | 825
O=C(O)C(CCCc1ccccc1)CCc1ccc(-c2ccccc2)cc1 (stereo not drawn) [Example 72, 2-[2-(1,1′-Biphenyl-4-yl)ethyl]-5-phenylpentanoic acid] | 10 to 100 | 88.3
O=C(O)C(CCCc1ccccc1)CCc1ccc(-c2ccco2)cc1 (stereo not drawn) [Example 73, 2-{2-[4′-(2-Furyl)phenyl]ethyl}-5-phenylpentanoic acid] | 100 to 1000 | 48.6
O=C(O)C(CCCc1ccccc1)CCc1ccc(-c2ccoc2)cc1 (stereo not drawn) [Example 74, 2-{2-[4′-(3-Furyl)phenyl]ethyl}-5-phenylpentanoic acid] | 10 to 100 | 94.5
O=C(O)C(CCCc1ccccc1)CCc1ccc(-c2ccsc2)cc1 (stereo not drawn) [Example 75, 2-{2-[4′-(3-Thienyl)phenyl]ethyl}-5-phenylpentanoic acid] | 100 to 1000 | 184
O=C(O)C(CCCc1ccccc1)CCc1ccc(-c2ccncc2)cc1 (stereo not drawn) [Example 76, 2-{2-[(4′-Pyridinyl)phenyl-4-yl]ethyl}-5-phenylpentanoic acid hydrochloride] | 10 to 100 | 166
O=C(O)C(CCCc1ccccc1)CCc1ccc(-c2cccs2)cc1 (stereo not drawn) [Example 78, 5-Phenyl-2-[2-(4′-thien-2-ylphenyl)ethyl]pentanoic acid] | 10 to 100 | 87.2
O=C(O)C(CCCc1cccc2ccccc12)CCc1ccc(-c2cccs2)cc1 (stereo not drawn) [Example 79, 5-(1-Naphthyl)-2-[2-(4′-thien-2-ylphenyl)ethyl]-pentanoic acid] | 100 to 1000 | 36.7
O=C(O)C(CCCc1cccc2ccccc12)CCc1ccc(-c2cccnc2)cc1 (stereo not drawn) [Example 80, 5-(1-Naphthyl)-2-[2-(4′-pyridin-3-ylphenyl)ethyl]-pentanoic acid] | 10 to 100 | 107
